Reference: patent US20230167088A1, “1-PYRAZINYLPYRAZOLYL-3-OXYALKYL ACIDS AND THEIR DERIVATIVES, AND THEIR USE FOR CONTROL OF UNDESIRED PLANT GROWTH” (BAYER AKTIENGESELLSCHAFT, priority 2020, published 2023)

Tests used:
ALOMY = assay: Herbicidal post-emergence action 1a (greenhouse pots, visual rating); type: in vivo, Alopecurus myosuroides; conditions: rated visually about 3 weeks after treatment, 100% = plants have died, 0% = like control plants
Procedure, shortened: (§1)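 Weeds and crops sown in sandy loam in greenhouse pots were sprayed post-emergence at the one-leaf stage (2–3 weeks after sowing) with WP or EC formulations plus 0.5% additive at 600 l/ha water, 320 and/or 80 g/ha. About 3 weeks later damage was rated visually against untreated controls (0% = no effect, 100% = dead).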

ECHCG [1] = assay: as above; type: in vivo, Echinochloa crus-galli; conditions: rated visually about 3 weeks after treatment, 100% = plants have died, 0% = like control plants
Procedure, shortened: as §1

harmful plants = assay: Herbicidal post-emergence action 1a, summary across species; type: in vivo; conditions: Tables A1 to A15 (320 g/ha and/or 80 g/ha)
ECHCG [2] = assay: Herbicidal pre-emergence action 2a (greenhouse pots, visual scoring); type: in vivo, Echinochloa crus-galli; conditions: dosage 320 g/ha, visual scoring after about 3 weeks
Procedure, shortened: (§2)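 Seeds were sown in pots, covered with soil, and the compound (WP or EC formulation) was sprayed onto the soil surface as an aqueous suspension or emulsion with 0.5% additive at 600 l/ha water, at 320 g/ha and/or 80 g/ha. Greenhouse growth followed for about 3 weeks, then visual scoring against untreated controls.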

AMARE [3] = assay: as above; type: in vivo, Amaranthus retroflexus; conditions: dosage 320 g/ha, visual scoring after about 3 weeks vs untreated controls
Procedure, shortened: as §2

VERPE [4] = assay: as above; type: in vivo, Veronica persica; conditions: dosage 320 g/ha, visual scoring after about 3 weeks vs untreated controls
Procedure, shortened: as §2

AMARE [5] = assay: Herbicidal post-emergence action 1a (greenhouse pots, visual rating); type: in vivo, Amaranthus retroflexus; conditions: visual rating about 3 weeks after treatment
Procedure, shortened: as §1

DIGSA [6] = assay: Herbicidal pre-emergence action 2a (greenhouse pots, visual scoring); type: in vivo, Digitaria sanguinalis; conditions: dosage 320 g/ha, visual scoring after about 3 weeks
Procedure, shortened: as §2

LOLRI = assay: as above; type: in vivo, Lolium rigidum; conditions: dosage 320 g/ha, visual scoring after about 3 weeks vs untreated controls
Procedure, shortened: as §2

POLCO = assay: as above; type: in vivo, Polygonum convolvulus; conditions: dosage 320 g/ha, visual scoring after about 3 weeks vs untreated controls
Procedure, shortened: as §2

VERPE [7] = assay: Herbicidal post-emergence action 1a (greenhouse pots, visual rating); type: in vivo, Veronica persica; conditions: visual rating about 3 weeks after treatment
Procedure, shortened: as §1

SETVI = assay: as above; type: in vivo, Setaria viridis; conditions: rated visually about 3 weeks after treatment, 100% = plants have died, 0% = like control plants
Procedure, shortened: as §1

DIGSA [8] = assay: as above; type: in vivo, Digitaria sanguinalis; conditions: rated visually about 3 weeks after treatment, 100% = plants have died, 0% = like control plants
Procedure, shortened: as §1

AMARE [9] = assay: Herbicidal pre-emergence action 2b (doubly sown, 1280 g/ha); type: in vivo, Amaranthus retroflexus; conditions: doubly sown pots, dosage 1280 g/ha, visual scoring after about 3 weeks
Procedure, shortened: (§3)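 Seeds are placed in sandy loam and covered, then the formulated compound is applied to the covering soil in water equivalent to 600 litres per hectare with 0.5% additive. Pots stay in the greenhouse under good growth conditions. Activity is rated visually as a percentage of untreated controls after about three weeks.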

MATIN = assay: as above; type: in vivo, Matricaria inodora; conditions: doubly sown pots, dosage 1280 g/ha, visual scoring after about 3 weeks
Procedure, shortened: as §3

POAAN = assay: as above; type: in vivo, Poa annua; conditions: doubly sown pots, dosage 1280 g/ha, visual scoring after about 3 weeks
Procedure, shortened: as §3

STEME = assay: as above; type: in vivo, Stellaria media; conditions: doubly sown pots, dosage 1280 g/ha, visual scoring after about 3 weeks
Procedure, shortened: as §3

COC(=O)COc1nn(-c2cnccn2)c(-c2cncc(F)c2)c1Br [Example I-07]
Post-emergence action against ALOMY in % (ALOMY; Dosage 80 g/ha): 90%
Post-emergence action against ALOMY in % (ALOMY; Dosage 320 g/ha): 100%
Post-emergence action against ECHCG in % (ECHCG [1]; Dosage 80 g/ha): 80%
Post-emergence action against ECHCG in % (ECHCG [1]; Dosage 320 g/ha): 90%
herbicidal efficacy against harmful plants in the case of post-emergence treatment (in words) (harmful plants): good herbicidal efficacy
Pre-emergence action against ECHCG in % (ECHCG [2]): 100%
Pre-emergence action against AMARE in % (AMARE [3]): 100%
Pre-emergence action against VERPE in % (VERPE [4]): 100%
Post-emergence action against AMARE in % (AMARE [5]; dosage 320 g/ha): 80%
Pre-emergence action against DIGSA in % (DIGSA [6]): 100%
Pre-emergence action against LOLRI in % (LOLRI): 100%
Pre-emergence action against POLCO in % (POLCO): 90%
Post-emergence action against VERPE in % (VERPE [7]; dosage 80 g/ha): 90%
Post-emergence action against VERPE in % (VERPE [7]; dosage 320 g/ha): 90%
Post-emergence action against SETVI in % (SETVI; Dosage 80 g/ha): 80%
Post-emergence action against SETVI in % (SETVI; Dosage 320 g/ha): 80%
Post-emergence action against DIGSA in % (DIGSA [8]; Dosage 80 g/ha): 80%
Post-emergence action against DIGSA in % (DIGSA [8]; Dosage 320 g/ha): 90%

CCOC(=O)COc1nn(-c2cnccn2)c(-c2ccc(F)nc2)c1Cl [Example I-53]
Post-emergence action against ECHCG in % (ECHCG [1]; Dosage 80 g/ha): 80%
herbicidal efficacy against harmful plants in the case of post-emergence treatment (in words) (harmful plants): good herbicidal efficacy
Pre-emergence action against ECHCG in % (ECHCG [2]): 100%
Pre-emergence action against AMARE in % (AMARE [3]): 100%
Pre-emergence action at 1280 g/ha against AMARE in % (AMARE [9]): 100%
Pre-emergence action against VERPE in % (VERPE [4]): 90%
Pre-emergence action at 1280 g/ha against MATIN in % (MATIN): 100%
Post-emergence action against AMARE in % (AMARE [5]; dosage 80 g/ha): 80%
Pre-emergence action at 1280 g/ha against POAAN in % (POAAN): 100%
Pre-emergence action against DIGSA in % (DIGSA [6]): 100%
Pre-emergence action against LOLRI in % (LOLRI): 80%
Pre-emergence action against POLCO in % (POLCO): 90%
Post-emergence action against VERPE in % (VERPE [7]; dosage 80 g/ha): 80%
Post-emergence action against SETVI in % (SETVI; Dosage 80 g/ha): 80%
Post-emergence action against DIGSA in % (DIGSA [8]; Dosage 80 g/ha): 90%
Pre-emergence action at 1280 g/ha against STEME in % (STEME): 100%

COC(=O)[C@@H](C)Oc1nn(-c2cnccn2)c(-c2ccc(F)nc2)c1Cl [Example I-36]
Post-emergence action against ALOMY in % (ALOMY; Dosage 320 g/ha): 100%
herbicidal efficacy against harmful plants in the case of post-emergence treatment (in words) (harmful plants): good herbicidal efficacy
Pre-emergence action against ECHCG in % (ECHCG [2]): 100%
Pre-emergence action against AMARE in % (AMARE [3]): 100%
Pre-emergence action at 1280 g/ha against AMARE in % (AMARE [9]): 100%
Pre-emergence action against VERPE in % (VERPE [4]): 100%
Pre-emergence action at 1280 g/ha against MATIN in % (MATIN): 90%
Post-emergence action against AMARE in % (AMARE [5]; dosage 80 g/ha): 90%
Post-emergence action against AMARE in % (AMARE [5]; dosage 320 g/ha): 90%
Pre-emergence action at 1280 g/ha against POAAN in % (POAAN): 100%
Pre-emergence action against DIGSA in % (DIGSA [6]): 100%
Pre-emergence action against LOLRI in % (LOLRI): 100%
Pre-emergence action against POLCO in % (POLCO): 100%
Post-emergence action against VERPE in % (VERPE [7]; dosage 320 g/ha): 90%
Post-emergence action against SETVI in % (SETVI; Dosage 320 g/ha): 100%
Post-emergence action against DIGSA in % (DIGSA [8]; Dosage 80 g/ha): 80%
Post-emergence action against DIGSA in % (DIGSA [8]; Dosage 320 g/ha): 90%
Pre-emergence action at 1280 g/ha against STEME in % (STEME): 100%
